Laboratory results reported in US10596127B2, “Composition for reducing the frequency of urination, method of making and use thereof” (WELLESLEY PHARMACEUTICALS, LLC, priority 2013, dated 2020).

How the values were obtained:
[1] = system: IL-6 secretion by normal human bladder smooth muscle cells; assay: IL-6 ELISA of normal human bladder smooth muscle cell supernatants; assay type: cell-based
[2] = system: COX2 expression by normal human bladder smooth muscle cells; assay: Cell-based ELISA of total COX2 in normal human bladder smooth muscle cells; settings: for effect on the effect of carbachol and LPS on COX2 levels: LPS-induced responses: analgesic at either 5 μM or 50 μM
Method: COX2 responses were analyzed by a Cell-Based ELISA using Human/mouse total COX2 immunoassay (R&D Systems), following the instructions of the manufacturer. Briefly, after cells fixation and permeabilization, a mouse anti-total COX2 and a rabbit anti-total GAPDH were added to the wells of the clear-bottom black 96-well cell culture microculture plates. After incubation and washes, an HRP-conjugated anti-mouse IgG and an AP-conjugated anti-rabbit IgG were added to the wells. Following another incubation and set of washes, the HRP- and AP-fluorogenic substrates were added. Finally, a Victor® V multilabel plate reader (PerkinElmer) was used to read the fluorescence emitted at 600 nm (COX2 fluorescence) and 450 nm (GAPDH fluorescence). Results are expressed as relative levels of total COX2 as determined by relative fluorescence unit (RFUs) and normalized to the housekeeping protein GAPDH.
Normal human bladder smooth muscle cells were isolated by enzymatic digestion from macroscopically normal pieces of human bladder. Cells were expended in vitro by culture at 37° C. in a 5% CO2 atmosphere in RPMI 1640 supplemented with 10% fetal bovine serum, 15 mM HEPES, 2 mM L-glutamine, 100 U/ml penicillin, and […] of streptomycin and passage once a week by treatment with trypsin to detach cells followed by reseeding in a new culture flask. The first week of culture, the culture medium was supplemented with 0.5 ng/ml epidermal growth factor, 2 ng/ml fibroblast growth factor, and 5 μg/ml insulin.
[…] When no other effectors were added to the cells, 50 μl of RPMI 1640 without fetal bovine serum were added to the wells to adjust the final volume to 200 μl.
After 24 hours of culture, 150 μl of culture supernatants were collected, spun down for 2 min at 8,000 rpm at 4° C. to remove cells and debris and stored at −70° C. for analysis of Prostaglandin E2 (PGE2) responses by ELISA. Cells were fixed, permeabilized and blocked for detection of COX2 using a fluorogenic substrate. In selected experiment cells were stimulated 12 hours in vitro for analysis of COX2, PGE2 and cytokine responses.
COX2 and PGE2 responses were analyzed as described in Example 3. Cytokine responses were analyzed as described in Example 2.

[3] = system: expression of co-stimulatory molecules by Raw 264 macrophage cells; assay: Flow cytometry of co-stimulatory molecules CD40 and CD80 on macrophages treated with analgesic, with or without LPS; assay type: cell-based, Murine; settings: for effect on basal expression of co-stimulatory molecules CD40 and CD80 by macrophages: 5 × 10^5, 5 × 10^4, 5 × 10^3, 5 × 10^2, 50 and 5 nM
Method: Murine RAW264.7 or J774 macrophage cells (obtained from ATCC) were used in this study. Cells were maintained in a culture medium containing RPMI 1640 supplemented with 10% fetal bovine serum (FBS), 15 mM HEPES, 2 mM L-glutamine, 100 U/ml penicillin, and 100 μg/ml of streptomycin. Cells were cultured at 37° C. in a 5% CO2 atmosphere and split (passages) once a week.
RAW264.7 macrophage cells were seeded in 96-well plates at a cell density of 1.5×10^5 cells per well in 100 μl of the culture medium. […] Briefly, the analgesics were dissolved in FBS-free culture medium (i.e., RPMI 1640 supplemented with 15 mM HEPES, 2 mM L-glutamine, 100 U/ml penicillin, and 100 μg/ml of streptomycin), and diluted to desired concentrations by serial dilution with the same medium. For cells treated with analgesic in the absence of LPS, 50 μl of analgesic solution and 50 μl of FBS-free culture medium were added to each well. For cells treated with analgesic in the presence of LPS, 50 μl of analgesic solution and 50 μl of LPS (from Salmonella typhimurium) in FBS-free culture medium were added to each well. All conditions were tested in duplicates.
After 24 or 48 hours of culture, 150 μl of culture supernatants were collected, spun down for 2 min at 8,000 rpm at 4° C. to remove cells and debris and stored at −70° C. for analysis of cytokine responses by ELISA. The cells were collected and washed by centrifugation (5 min at 1,500 rpm at 4° C.) in 500 μl of Phosphate buffer (PBS). Half of the cells were then snap frozen in liquid nitrogen and stored at −70° C. The remaining cells were stained with fluorescent monoclonal antibodies and analyzed by flow cytometry.
For flow cytometry analysis, macrophages were diluted in 100 μl of FACS buffer (phosphate buffered saline (PBS) with 2% bovine serum albumin (BSA) and 0.01% NaN3) and stained 30 min at 4° C. by addition of FITC-conjugated anti-CD40, PE-conjugated anti-CD80, PE-conjugated anti-CD86 antibody, anti MHC class II (I-A^d) PE (BD Bioscience). Cells were then washed by centrifugation (5 min at 1,500 rpm at 4° C.) in 300 μl of FACS buffer. After a second wash, cells were re-suspended in 200 μl of FACS buffer and the percentage of cells expressing a given marker (single positive), or a combination of markers (double positive) were analyzed with the aid of an Accuri C6 flow cytometer (BD Biosciences).

[4] = adult humans; cited from earlier work
[5] = system: TNFα secretion by normal human bladder smooth muscle cells; assay: TNFα ELISA of normal human bladder smooth muscle cell supernatants; assay type: cell-based
[6] = LPS (10 μg/ml) plus analgesic 5 μM, LPS alone 4383
[7] = LPS (10 μg/ml) plus analgesic 5 μM, LPS alone 4838, mean of duplicates
[8] = LPS (10 μg/ml) plus analgesic 50 μM, LPS alone 4383
[9] = LPS (10 μg/ml) plus analgesic 50 μM, LPS alone 4838, mean of duplicates
[10] = Carbachol 10^−3 M plus analgesic 50 μM, carbachol alone 437, unstimulated 230, mean of duplicates
[11] = Carbachol 10^−3 M plus analgesic 50 μM, carbachol alone 462, unstimulated 199
[12] = LPS (10 μg/ml) plus analgesic 5 μM, LPS alone 633, unstimulated 199
[13] = LPS (10 μg/ml) plus analgesic 5 μM, LPS alone 672, unstimulated 230, mean of duplicates
[14] = LPS (10 μg/ml) plus analgesic 50 μM, LPS alone 633, unstimulated 199
[15] = LPS (10 μg/ml) plus analgesic 50 μM, LPS alone 672, unstimulated 230, mean of duplicates
[16] = analgesic alone, 5 nM, negative control 20.6
[17] = analgesic alone, 50 nM, negative control 20.6
[18] = analgesic alone, 500 nM, negative control 20.6
[19] = analgesic alone, 5 × 10^3 nM, negative control 20.6
[20] = analgesic alone, 5 × 10^4 nM, negative control 20.6
[21] = analgesic alone, 5 × 10^5 nM, negative control 20.6
[22] = analgesic alone, 5 × 10^6 nM, negative control 20.6
[23] = analgesic plus LPS, analgesic 5 nM, LPS 5 ng/ml alone 77.8
[24] = analgesic plus LPS, analgesic 50 nM, LPS 5 ng/ml alone 77.8
[25] = analgesic plus LPS, analgesic 500 nM, LPS 5 ng/ml alone 77.8
[26] = analgesic plus LPS, analgesic 5 × 10^3 nM, LPS 5 ng/ml alone 77.8
[27] = analgesic plus LPS, analgesic 5 × 10^4 nM, LPS 5 ng/ml alone 77.8
[28] = analgesic plus LPS, analgesic 5 × 10^5 nM, LPS 5 ng/ml alone 77.8
[29] = analgesic plus LPS, analgesic 5 × 10^6 nM, LPS 5 ng/ml alone 77.8
[30] = LPS (10 μg/ml) plus analgesic 5 μM, LPS alone 4107
[31] = LPS (10 μg/ml) plus analgesic 5 μM, LPS alone 5725, mean of duplicates
[32] = LPS (10 μg/ml) plus analgesic 50 μM, LPS alone 4107
[33] = LPS (10 μg/ml) plus analgesic 50 μM, LPS alone 5725, mean of duplicates
[34] = stimulus alone, no analgesic (Carbachol 10^−3 M; LPS 10 μg/ml), unstimulated <5

SMILES | IL-6 (pg/ml) Subject 2 [1, 6] | IL-6 (pg/ml) Subject 1 [1, 7] | IL-6 (pg/ml) Subject 2 [1, 8] | IL-6 (pg/ml) Subject 1 [1, 9] | effect on expression of the co-stimulatory molecules at the highest dose ([3]; 5 × 10^6 nM) | effect on basal expression of co-stimulatory molecules CD40 and CD80 by macrophages [3] | % Positive CD40+CD80+ [3, 16] | % Positive CD40+CD80+ [3, 17] | % Positive CD40+CD80+ [3, 18] | % Positive CD40+CD80+ [3, 19] | % Positive CD40+CD80+ [3, 20] | % Positive CD40+CD80+ [3, 21] | % Positive CD40+CD80+ [3, 23] | % Positive CD40+CD80+ [3, 24] | % Positive CD40+CD80+ [3, 25] | % Positive CD40+CD80+ [3, 26] | % Positive CD40+CD80+ [3, 27] | % Positive CD40+CD80+ [3, 28] | Maximum serum levels after oral therapeutic doses [4] | TNFα (pg/ml) Subject 2 [5, 30] | also measured
CC(=O)Nc1ccc(O)cc1 [Acetaminophen, N-acetyl-para-aminophenol] | 2308 pg/mL | 2012 pg/mL | 1983 pg/mL | 2018 pg/mL | enhance | inhibit | 7.5% | 9.5% | 8.3% | 9.8% | 12% | 18% | 62.1% | 66.2% | 66.8% | 68.8% | 72.4% | 82.7% | 11 to 18 mg/L | 2267 pg/mL | Total COX2 levels (Normalized RFUs) subject 1 [2, 10]: 298 Normalized RFUs; Total COX2 levels (Normalized RFUs) subject 2 [2, 11]: 310 Normalized RFUs; Total COX2 levels (Normalized RFUs) subject 2 [2, 12]: 457 Normalized RFUs; Total COX2 levels (Normalized RFUs) subject 1 [2, 13]: 428 Normalized RFUs; Total COX2 levels (Normalized RFUs) subject 2 [2, 14]: 509 Normalized RFUs; Total COX2 levels (Normalized RFUs) subject 1 [2, 15]: 399 Normalized RFUs; effect on the effect of carbachol and LPS on COX2 levels [2]: suppress; % Positive CD40+CD80+ [3, 22]: 63%; % Positive CD40+CD80+ [3, 29]: 95.1%; TNFα (pg/ml) Subject 1 [5, 31]: 2338 pg/mL; TNFα (pg/ml) Subject 2 [5, 32]: 2056 pg/mL; TNFα (pg/ml) Subject 1 [5, 33]: 2184 pg/mL
CC(=O)Oc1ccccc1C(=O)O [Aspirin, Acetylsalicylic acid] | 2089 pg/mL | 2199 pg/mL | 2010 pg/mL | 1987 pg/mL | enhance | inhibit | 7.5% | 10.5% | 8% | 8.3% | 10.3% | 11% | 65.7% | 70.1% | 75.8% | 74.7% | 78.7% | 80% | 30 to 100 mg/L | 2187 pg/mL | Total COX2 levels (Normalized RFUs) subject 1 [2, 10]: 312 Normalized RFUs; Total COX2 levels (Normalized RFUs) subject 2 [2, 11]: 297 Normalized RFUs; Total COX2 levels (Normalized RFUs) subject 2 [2, 12]: 491 Normalized RFUs; Total COX2 levels (Normalized RFUs) subject 1 [2, 13]: 472 Normalized RFUs; Total COX2 levels (Normalized RFUs) subject 2 [2, 14]: 484 Normalized RFUs; Total COX2 levels (Normalized RFUs) subject 1 [2, 15]: 413 Normalized RFUs; effect on the effect of carbachol and LPS on COX2 levels [2]: suppress; % Positive CD40+CD80+ [3, 22]: 44%; % Positive CD40+CD80+ [3, 29]: 84.5%; TNFα (pg/ml) Subject 1 [5, 31]: 2479 pg/mL; TNFα (pg/ml) Subject 2 [5, 32]: 2089 pg/mL; TNFα (pg/ml) Subject 1 [5, 33]: 2266 pg/mL
C[N+](C)(C)CCOC(N)=O [Carbachol, carbachol] | – | – | – | – | – | – | – | – | – | – | – | – | – | – | – | – | – | – | – | – | IL-6 (pg/ml) Subject 1 [1, 34]: 232 pg/mL; IL-6 (pg/ml) Subject 2 [1, 34]: 278 pg/mL; COX2 responses to stimulus alone ([2]; no analgesic): induced low, but significant COX2 responses; Total COX2 levels (Normalized RFUs) subject 2 ([2]; stimulus alone, no analgesic (Carbachol 10^−3 M; LPS 10 μg/ml), unstimulated 199): 462 Normalized RFUs; Total COX2 levels (Normalized RFUs) subject 1 ([2]; stimulus alone, no analgesic (Carbachol 10^−3 M; LPS 10 μg/ml), unstimulated 230): 437 Normalized RFUs; TNFα (pg/ml) Subject 1 [5, 34]: 350 pg/mL; TNFα (pg/ml) Subject 2 [5, 34]: 286 pg/mL
CC(C)Cc1ccc(C(C)C(=O)O)cc1 (stereo not shown) [Ibuprofen, ibuprofen] | 2173 pg/mL | 2063 pg/mL | 1991 pg/mL | 2021 pg/mL | enhance | inhibit | 5.8% | 4.9% | 6.0% | 7.9% | 7.7% | 6.4% | 60.3% | 63.7% | 71.1% | 72.9% | 77.9% | 67% | 24 to 32 mg/L | 2288 pg/mL | TNFα (pg/ml) Subject 1 [5, 31]: 2733 pg/mL; TNFα (pg/ml) Subject 2 [5, 32]: 1997 pg/mL; TNFα (pg/ml) Subject 1 [5, 33]: 2603 pg/mL
